Where “and” joins values, the source holds several entries; their conditions need not be identical. Identical values can stand only once. Inconclusive results and toxic doses are left out.

These results are taken from PubChem BioAssay AID330 (DTP/NCI, 2004).

The test deals with P388 leukemia ip, CD2F1 mice, survival T/C. Briefly: NCI In Vivo Anticancer Drug Screen. Data for tumor model P388 Leukemia (intraperitoneal) in CD2F1 (CDF1) mice. The following applies: endpoint: median survival time, higher = longer survival. The procedure:
The antitumor activity of compounds was measured in mice bearing transplantable tumors. Survival or tumor size were measured and the results are expressed as the measurement made in the treated group (T) divided by the measurement made in the vehicle treated control group (C). The tumor model used in this assay is P388 Leukemia (intraperitoneal) in CD2F1 (CDF1) mice

Where [1] appears, read: dose: 50.0 mg/kg/injection, schedule: Q01DX009 (ip), vehicle: saline with Tween-80.
[2] abbreviates: dose: 100.0 mg/kg/injection, schedule: Q01DX009 (ip), vehicle: saline with Tween-80.
Where [3] appears, read: dose: 200.0 mg/kg/injection, schedule: Q01DX009 (ip), vehicle: saline with Tween-80.
Setting [4] is: dose: 12.5 mg/kg/injection, schedule: Q01DX009 (ip), vehicle: saline with Tween-80.
The mark [5] stands for this setting: dose: 25.0 mg/kg/injection, schedule: Q01DX009 (ip), vehicle: saline with Tween-80.
The mark [6] stands for this setting: dose: 50.0 mg/kg/injection, schedule: Q01DX009 (ip), vehicle: saline.
[7] abbreviates: dose: 100.0 mg/kg/injection, schedule: Q01DX009 (ip), vehicle: saline.
[8] abbreviates: dose: 200.0 mg/kg/injection, schedule: Q01DX009 (ip), vehicle: saline.
[9] abbreviates: dose: 100.0 mg/kg/injection, schedule: Q04DX002 (ip), vehicle: saline with Tween-80.
Where [10] appears, read: dose: 200.0 mg/kg/injection, schedule: Q04DX002 (ip), vehicle: saline with Tween-80.
Setting [11] is: dose: 50.0 mg/kg/injection, schedule: Q01DX005 (ip), vehicle: Klucel (hydroxypropylcellulose) (HPC).
[12] abbreviates: dose: 100.0 mg/kg/injection, schedule: Q01DX005 (ip), vehicle: Klucel (hydroxypropylcellulose) (HPC).
[13] abbreviates: dose: 60.0 mg/kg/injection, schedule: Q01DX005 (ip), vehicle: saline with Tween-80.
Where [14] appears, read: dose: 120.0 mg/kg/injection, schedule: Q01DX005 (ip), vehicle: saline with Tween-80.
[15] abbreviates: dose: 240.0 mg/kg/injection, schedule: Q01DX005 (ip), vehicle: saline with Tween-80.

On to `CCCCC1(CN(C)C)C(=O)N(C)C(=O)N(C2CCCCC2)C1=O` (configuration not stated), for which the T/C is, setting by setting: under setting [1], 100 % of control; under setting [2], 102 % of control; under setting [3], 99 % of control.
In the case of `Cc1nnn(NC(=O)Cc2ccccc2)c1C`, the T/C is, setting by setting: (dose: 100.0 mg/kg/injection, schedule: Q01DX001 (ip), vehicle: Klucel (hydroxypropylcellulose) (HPC)) 98 % of control; (dose: 200.0 mg/kg/injection, schedule: Q01DX001 (ip), vehicle: Klucel (hydroxypropylcellulose) (HPC)) 99 % of control; (dose: 400.0 mg/kg/injection, schedule: Q01DX001 (ip), vehicle: Klucel (hydroxypropylcellulose) (HPC)) 99 % of control.
Regarding `O=C1OP2(c3ccccc3)(OC(=O)c3ccccc32)c2ccccc21`, the T/C under setting [4] is 98 % of control and 94 % of control; the T/C under setting [5] is 99 % of control and 92 % of control; the T/C under setting [1] is 90 % of control and 95 % of control; the T/C under setting [2] is 95 % of control; the T/C under setting [3] is 88 % of control.
For the compound `C=C1[C@@]2(O)CCCC[C@@H]2C[N+]1(C)C`, the T/C reads like this: under setting [6], 91 % of control; under setting [7], 90 % of control; under setting [8], 95 % of control.
Turning to `COc1cc2cc(c1Cl)N(C)C(=O)/C=C/C1(C)OC1C(C)C1CC(O)(NC(=O)O1)C(OC)/C=C/C=C(\C)C2OC` (configuration not stated), the T/C reads like this: (dose: 4.0 micrograms/kg/injection, schedule: Q01DX009 (ip), vehicle: distilled water + alcohol) 103 % of control; (dose: 8.0 micrograms/kg/injection, schedule: Q01DX009 (ip), vehicle: distilled water + alcohol) 100 % of control; (dose: 64.0 micrograms/kg/injection, schedule: Q01DX009 (ip), vehicle: distilled water + alcohol) 99 % of control; (dose: 128.0 micrograms/kg/injection, schedule: Q01DX009 (ip), vehicle: distilled water + alcohol) 91 % of control.
For the compound `COc1cc(C2c3cc4c(cc3CC3COC(=O)C32)OCO4)cc(OC)c1O` (configuration not stated), the T/C (dose: 0.5 mg/kg/injection, schedule: Q01DX009 (ip), vehicle: saline with Tween-80) was 105 % of control; the T/C (dose: 1.0 mg/kg/injection, schedule: Q01DX009 (ip), vehicle: saline with Tween-80) was 103 % of control; the T/C (dose: 2.0 mg/kg/injection, schedule: Q01DX009 (ip), vehicle: saline with Tween-80) is 114 % of control; the T/C (dose: 3.1 mg/kg/injection, schedule: Q01DX009 (ip), vehicle: saline with Tween-80) was 123 % of control; the T/C (dose: 4.0 mg/kg/injection, schedule: Q01DX009 (ip), vehicle: saline with Tween-80) is 107 % of control.
Turning to `COc1ccc(C2(c3ccc(OC)cc3)N=C(N(C)C)NC2=O)cc1`, the T/C reads like this: (dose: 50.0 mg/kg/injection, schedule: Q04DX002 (ip), vehicle: saline with Tween-80) 102 % of control; under setting [9], 97 % of control; under setting [10], 94 % of control.
In the case of `CC(C)=CCC(OC(=O)C=C(C)C)c1cc(O)c2c(O)ccc(O)c2c1O.[Fe]` (configuration not stated), the T/C under setting [9] was 92 % of control; the T/C under setting [10] was 92 % of control; the T/C (dose: 400.0 mg/kg/injection, schedule: Q04DX002 (ip), vehicle: saline with Tween-80) is 93 % of control.
Regarding `O=C1CC2(C(=O)N1)c1ccccc1-c1ccccc12`, the T/C was 96 % of control under setting [1], 103 % of control under setting [2] and 119 % of control under setting [3].
With `CCC(=O)NN(Cn1c(=S)sc2ccccc21)Cn1c(=S)sc2ccccc21`, the T/C reads like this: under setting [11], 99 % of control; under setting [12], 89 % of control; (dose: 200.0 mg/kg/injection, schedule: Q01DX005 (ip), vehicle: Klucel (hydroxypropylcellulose) (HPC)) 93 % of control.
As for `COC(=O)c1c[n+]([O-])ccc1OC`, the T/C (dose: 50.0 mg/kg/injection, schedule: Q01DX005 (ip), vehicle: saline) was 102 % of control; the T/C (dose: 100.0 mg/kg/injection, schedule: Q01DX005 (ip), vehicle: saline) is 106 % of control; the T/C (dose: 200.0 mg/kg/injection, schedule: Q01DX005 (ip), vehicle: saline) was 102 % of control.
For `Cc1ncc(CO)c(C2NC(C(=O)O)CS2)c1O` (configuration not stated), the T/C reads like this: under setting [13], 98 % of control; under setting [14], 98 % of control; under setting [15], 100 % of control.
Take `CCc1c(NCCO)c(C(=O)NCCO)c2nc3ccccc3n2c1NCCO`: the T/C under setting [13] is 101 % of control, the T/C under setting [14] was 99 % of control and the T/C under setting [15] is 99 % of control.
Turning to `COc1cccc2c1C(=N)c1c(O)c3c(c(O)c1C2=O)CC(O)(C(=O)CO)CC3OC1CC(N2CCOCC2C#N)C(O)C(C)O1` (configuration not stated), the T/C is, setting by setting: (dose: 0.25 mg/kg/injection, schedule: Q04DX003 (ip), vehicle: saline) 117 % of control; (dose: 0.5 mg/kg/injection, schedule: Q04DX003 (ip), vehicle: saline) 157 % of control; (dose: 1.0 mg/kg/injection, schedule: Q04DX003 (ip), vehicle: saline) 111 % of control and 97 % of control.
With `O=[N+]([O-])c1nccn1CC(O)CO` (configuration not stated), the T/C (dose: 12.5 mg/kg/injection, schedule: Q01DX009 (ip), vehicle: saline) was 103 % of control and 116 % of control; the T/C (dose: 25.0 mg/kg/injection, schedule: Q01DX009 (ip), vehicle: saline) was 101 % of control and 121 % of control; the T/C under setting [6] was 103 % of control and 116 % of control and 98 % of control; the T/C under setting [7] was 102 % of control and 106 % of control and 116 % of control; the T/C under setting [8] was 104 % of control and 107 % of control and 121 % of control; the T/C (dose: 360.0 mg/kg/injection, schedule: Q01DX001 (ip), vehicle: saline) is 101 % of control and 102 % of control. The T/C by setting is: (dose: 400.0 mg/kg/injection, schedule: Q01DX009 (ip), vehicle: saline) 102 % of control and 106 % of control; (dose: 600.0 mg/kg/injection, schedule: Q01DX001 (ip), vehicle: saline) 100 % of control and 102 % of control; (dose: 1000.0 mg/kg/injection, schedule: Q01DX001 (ip), vehicle: saline) 101 % of control and 104 % of control.
With `COc1ccc(C(=O)Cc2nc3nnc(N)n3nc2CC(=O)c2ccc(OC)cc2)cc1`, the T/C is 96 % of control (dose: 60.0 mg/kg/injection, schedule: Q01DX005 (ip), vehicle: saline); 100 % of control (dose: 120.0 mg/kg/injection, schedule: Q01DX005 (ip), vehicle: saline); 100 % of control (dose: 240.0 mg/kg/injection, schedule: Q01DX005 (ip), vehicle: saline).
Consider `COc1ccccc1N1CCN(c2nc(NC(=O)c3ccccc3)nn2C)CC1`, for which the T/C by setting is: (dose: 60.0 mg/kg/injection, schedule: Q01DX005 (ip), vehicle: Klucel (hydroxypropylcellulose) (HPC)) 112 % of control; (dose: 120.0 mg/kg/injection, schedule: Q01DX005 (ip), vehicle: Klucel (hydroxypropylcellulose) (HPC)) 87 % of control.
Take `O=C(c1ccccc1)N1OC12CCCCC2`: the T/C under setting [11] is 102 % of control and the T/C under setting [12] is 99 % of control.
With `c1ccc(C2=NCN3CC23c2ccccc2)cc1` (configuration not stated), the T/C is 98 % of control under setting [4], 98 % of control under setting [5], 99 % of control under setting [1] and 95 % of control under setting [2].
